From US20030033638A1, “Production of transgenic plants of the tagetes species” (priority 1999, published 2003)

System: leaves of Tagetes patula plants of genotypes TAG 80 and TAG 81
Test: Determination of phosphinothricin (PPT) toxicity on leaf explants
Format: cell-based
Conditions: leaf disks 10-60 mm^2 on MS medium with 2% sucrose, 3 mg/l BAP, 1 mg/l IAA; 2 weeks; both genotypes TAG 80 and TAG 81
Protocol: Leaves of Tagetes patula plants of genotypes TAG 80 and TAG 81 (Genbank, IPK Gatersleben) which were established in vitro were cut transversely to the central vein into disks 10-60 mm^2 in size and placed on MS medium supplemented with 2% sucrose, 3 mg/l benzylaminopurine (BAP), 1 mg/l indoleacetic acid (IAA) and different PPT concentrations. Incubation was for 2 weeks in a 16/8 hour light/dark photoperiod at approx. 50 μE/m^2s and at from 21 to 24° C. Then, the number of damaged explants was recorded with reference to the total number of tested explants (FIG. 2). In both Tagetes patula genotypes tested, concentrations starting at 1 mg/l PPT led to the complete destruction of all explants, which is why this concentration was used for the selection after cocultivation.

CP(=O)(O)CC[C@H](N)C(=O)O [PPT, phosphinothricin]
PPT concentration leading to the complete destruction of all explants: ≥ 1 mg/L
